Measurements: publication PMC3758303 (PLoS ONE, 2013)

Columns and labels:
[1] = system: genome-length HCV-RNA (O strain of genotype 1b) replication in Li23-derived ORL11 cells; set-up: method as in PMID 21320556; conditions: 10 µM, ORL11 assay; cited from earlier work
[2] = system: genome-length HCV-RNA (O strain of genotype 1b) replication in HuH-7-derived OR6 cells; set-up: method as in PMID 21320556; conditions: 10 µM, OR6 assay; cited from earlier work
[3] = system: genome-length HCV-RNA (O strain of genotype 1b) replication in Li23-derived ORL8 cells; set-up: method as in PMID 21320556; conditions: 10 µM, ORL8 assay; cited from earlier work
[4] = system: HCV-RNA replication in ORL8 cells; assay: Effect of VE on anti-HCV activity, ORL8 RL assay; type: cell-based, hepatitis C virus; conditions: 72 hrs
Protocol: After treatment, an RL assay of harvested ORL8 cell samples was performed. (B, D, and F) The ratio of RL activity in the presence of VE to the RL activity in the absence of VE. The above ratio was calculated from the data of (A, C, and E). […] (G) Western blot analysis was performed as described in Fig. 1B.
(§1) The ORL8 cells were treated with N-89 or IFN-α, and then RL assays were performed at 2 to 72 hrs after the treatment. The relative value (%) calculated at each time point, when the luciferase activity of non-treated cells at 24 hrs was assigned as 100%, is shown. Data are expressed as the means±standard deviation of triplicate assays. […] To evaluate this possibility, we examined the effect of VE on N-89 at the EC90 level in the ORL8 assay.

HCV-RNA replication = system: HCV-RNA replication; set-up: method as in PMID 21620801, PMID 16875675; conditions: cited from earlier work
[5] = system: HCV-RNA replication in ORL8 cells; assay: Comparative time course RL assay in ORL8 cells; type: cell-based, hepatitis C virus; conditions: 1 IU/ml
Protocol: We next performed a time course assay (2 to 72 hrs after treatment) in the case of ORL8 cells treated with N-89 (0.1 µM or 1 µM) or IFN-α (1 IU/ml; corresponding to approximately EC80). ORL8 cells treated with IFN-α (1 IU/ml) and N-89 (1 µM) had almost the same anti-HCV kinetics over the first […] after treatment (upper panel of Fig. 4); however, within the first 12 hrs after treatment N-89-treated ORL8 cells had more rapid anti-HCV kinetics than did the IFN-α-treated cells (lower panel of Fig. 4).
as §1, with “Figure 4 The anti-HCV action of N-89 was faster than that of IFN-α. The ORL8” for “The ORL8”, “ORL8 assay. […] Similar results were obtained by using N-251 (Fig. 5C and D). […] However, an antimalarial drug, artemisinin, was hardly influenced by co-treatment with VE (Fig. 5E). The value (1.9) of artemisinin was almost the same as that (3.5 or 2.5) of IFN-α or the control, respectively (Fig. 5F).” for “ORL8 assay.”

[6] = system: genome-length HCV-RNA (O strain of genotype 1b) replication in Li23-derived ORL8 cells; assay: ORL8 RL assay; type: cell-based, hepatitis C virus; conditions: ORL8 cells
Protocol: RSc and D7 cells were derived from the cell lines HuH-7 and Li23, respectively, were cultured as described previously, [29]. HuH-7-derived OR6 [13], AH1R [30], and 1B-4R [Ikeda et al., submitted] cells harboring genome-length HCV-RNA and HuH-7-derived polyclonal sOR [31], and RSc-JRN/35B [Ikeda et al., submitted] cells harboring an HCV subgenomic replicon were cultured with medium in the presence of G418 (0.3 mg/ml; Geneticin, Invitrogen, Carlsbad, CA) as described previously. Li23-derived ORL8 [20], ORL11 [20], 1B-4RL [Ikeda et al., submitted], and KAH5RL [Ikeda et al., submitted] cells harboring genome-length HCV-RNA were maintained with medium in the presence of G418 (0.3 mg/ml) as described previously. Li23-derived polyclonal sORL8 and sORL11 cells harboring an HCV replicon, which were established by the transfection of ORN/3-5B/QR,KE,SR RNA into the cured OL8 and OL11 cells, respectively, were also cultured with medium in the presence of G418 (0.3 mg/ml) as described previously. […] Therefore, when HCV-RNA is excluded from the cells or when its level is decreased, the cells are killed in the presence of G418.
RL assay was performed as described previously, [24]. Briefly, the cells were plated onto 24-well plates (2×10^4 cells per well) in triplicate and then treated with each reagent at several concentrations for 72 hrs. After treatment, the cells were subjected to luciferase assay using the RL assay system (Promega, Madison, WI). The experiments were performed at least in triplicate. From the assay results, the 50% effective concentration (EC50) of each reagent was determined.
The SI value of each reagent was determined by dividing the CC50 value by the EC50 value.

[7] = reagent at expected EC90, Fig. 5F (control 2.5)

Row | Compound | inhibition of HCV-RNA replication [1] | inhibition of HCV-RNA replication [2] | inhibition of HCV-RNA replication [3] | VE 10μM(+) / VE 10μM(-) ratio of RL activity [4, 7] | anti-HCV activity (HCV-RNA replication) | VE 10μM(+) / VE 10μM(-) ratio of RL activity ([4]; reagent at expected EC90, Fig. 5B (control 3.0)) | VE 10μM(+) / VE 10μM(-) ratio of RL activity ([4]; reagent at expected EC90, Fig. 5D (control 2.3)) | time after treatment at which a decrease of RL activity began to be seen [5] [h] | EC80 [6] [IU/ml]
1 | NC(=O)c1ncn([C@@H]2O[C@H](CO)[C@@H](O)[C@H]2O)n1 [RBV, ribavirin] | efficiently inhibited HCV-RNA replication | not in the OR6 assay | efficiently inhibited HCV-RNA replication | – | – | – | – | – | –
2 | C[C@@H]1CC[C@H]2[C@@H](C)C(=O)O[C@@H]3O[C@@]4(C)CC[C@@H]1[C@]32OO4 [Artemisinin, reference compound] | – | – | – | 1.9 | weak anti-HCV activity | – | – | – | –
3 | IFN-α | – | – | – | 3.5 | – | 3.2 | 4.3 | 12 | ~1
